Several values for one entry are separate records, joined by “and”; a condition that tells them apart may be missing. Equal entries are not always repeated. Entries after “also recorded” stand apart in the source; their conditions may differ. Where two headings read alike, the source gives them in different places.
Experiments:
[1] = biological target: T1, B. anthracis OSB-CoA synthetase (Bacillus anthracis, UniProt Q81K97); assay: biochemical; assay type: binding
[2] = biological target: T1, B. anthracis OSB-CoA synthetase; assay: biochemical; assay type: biochemical; conditions: for Km: read-out: Apparent Km
[3] = biological target: T1, B. anthracis OSB-CoA synthetase; assay: biochemical; assay type: biochemical; conditions: for Km: read-out: Km of varied substrate
B. anthracis ∆ANR strain = assay type: cell-based, Bacillus anthracis

T1 sequence (Q81K97 whole entry, looked up): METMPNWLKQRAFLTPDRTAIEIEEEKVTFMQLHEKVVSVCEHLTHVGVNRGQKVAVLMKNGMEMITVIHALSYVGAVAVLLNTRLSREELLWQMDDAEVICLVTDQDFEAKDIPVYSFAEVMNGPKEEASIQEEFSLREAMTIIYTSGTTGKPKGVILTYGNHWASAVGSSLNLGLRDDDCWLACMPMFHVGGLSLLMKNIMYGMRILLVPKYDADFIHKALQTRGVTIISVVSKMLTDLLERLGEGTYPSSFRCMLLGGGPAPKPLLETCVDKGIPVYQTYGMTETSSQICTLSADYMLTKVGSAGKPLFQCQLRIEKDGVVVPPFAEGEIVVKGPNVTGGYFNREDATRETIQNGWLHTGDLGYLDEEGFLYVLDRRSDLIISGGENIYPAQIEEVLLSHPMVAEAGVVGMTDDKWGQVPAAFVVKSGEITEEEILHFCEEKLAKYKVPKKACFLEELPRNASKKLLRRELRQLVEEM

With `Nc1ncnc2c1ncn2[C@@H]1O[C@H](COP(=O)(O)OP(=O)(O)OP(=O)(O)O)[C@@H](O)[C@H]1O` [ATP] the Kd [1] was 131 ± 22 µM, the “binding to free enzyme” value [1] was “No significant binding” and the kcat ([2]; pH 7.5, 21°C) was 2.55 ± 0.0533 s⁻¹. It also gave a Km ([2]; pH 7.5, 21°C) of 26.8 ± 2.7 µM.

For `O=C(O)CCC(=O)c1ccccc1C(=O)O` [OSB, o-succinylbenzoate], the Km [3] was 3.6 µM and 2.8 µM, the “binding to free enzyme” value [1] was “no significant binding” and the kcat ([2]; pH 7.5, 21°C) was 2.58 ± 0.06 s⁻¹. The Km ([2]; pH 7.5, 21°C) was 21.9 ± 2 µM.

With `Nc1ncnc2c1ncn2[C@@H]1O[C@H](COS(=O)(=O)NC(=O)CCC(=O)c2ccccc2C(F)(F)F)[C@@H](O)[C@H]1O` [TFMP-butyl-AMS, 5’-O-(N-(2-trifluoromethylphenyl)-4-oxobutyl) adenosine sulfonamide] the “Ki / αKi values, range in words” value [3] was “low micromolar; also recorded: lower micromolar range”, the “αKi (affinity to enzyme-ATP complex)” value [3] was 108 ± 17.0 µM and the Ki [3] was 5.6 µM and 5.2 µM. For the same compound, the whole cell activity (B. anthracis ∆ANR strain) was “limited whole cell activity”.

In the case of `O=C(O)CCC(=O)c1ccccc1C(F)(F)F`, the “decrease in kcat/Km compared to OSB” value [2] is reported as 100 fold.

With `CC(C)(COP(=O)(O)OP(=O)(O)OC[C@H]1O[C@@H](n2cnc3c(N)ncnc32)[C@H](O)[C@@H]1OP(=O)(O)O)[C@@H](O)C(=O)NCCC(=O)NCCSC(=O)c1ccccc1` [Benzoyl-CoA, benzoyl-CoA] the Inhibition pattern [3] was “mixed-type”, the “Ki / αKi values, range in words” value [3] was “millimolar range” and the αKi [3] was 15.3 ± 2.6 mM. It also gave a Ki [3] of 3000 ± 500 µM.

With `Nc1ncnc2c1ncn2[C@@H]1O[C@H](COP(=O)(O)O)[C@@H](O)[C@H]1O` [AMP] the “Ki / αKi values, range in words” value [3] was “millimolar range” and the Ki [3] was 3600 µM and 4600 µM.

In the case of `CC(C)(COP(=O)(O)OP(=O)(O)OC[C@H]1O[C@@H](n2cnc3c(N)ncnc32)[C@H](O)[C@@H]1OP(=O)(O)O)[C@@H](O)C(=O)NCCC(=O)NCCS` [CoA], the Km [3] is reported as 49.9 µM and 66.2 µM and 39.3 µM, the “binding to enzyme-Mg^2+ATP complex” value [1] is reported as “no significant binding” and the “binding to free enzyme” value [1] is reported as “no significant binding”. The kcat ([2]; pH 7.5) was 2.6 ± 0.075 s⁻¹, the Km [2] was 279 µM and 194 µM and 269 µM and 231 µM and the Km ([2]; pH 7.5) was 304 ± 22.1 µM.

For `O=C(O)CCC(=O)c1ccccc1C(F)(F)F` [Compound 5, 4-(2-trifluoromethylphenyl)-4-oxobutyric acid], the “reduction in kcat compared to OSB” value [2] was 10 fold and the remaining activity at 1000 µM ([2]; read-out: residual activity as substrate) was 5.8%.

— paper PMC2710618 (Biochemistry, 2008)
